In patent US11180474B2 (BRISTOL-MYERS SQUIBB COMPANY, priority 2016, dated 2021) one finds IC50 data, which are given here for 25 compounds.

Where a name gives a salt, the structure may show the parent alone.

The target of this experiment is T1, human TLR8 (Homo sapiens, UniProt Q9NR97).
T1 construct: host or cells: HEK-Blue cells
T1 sequence (Q9NR97 27-1041): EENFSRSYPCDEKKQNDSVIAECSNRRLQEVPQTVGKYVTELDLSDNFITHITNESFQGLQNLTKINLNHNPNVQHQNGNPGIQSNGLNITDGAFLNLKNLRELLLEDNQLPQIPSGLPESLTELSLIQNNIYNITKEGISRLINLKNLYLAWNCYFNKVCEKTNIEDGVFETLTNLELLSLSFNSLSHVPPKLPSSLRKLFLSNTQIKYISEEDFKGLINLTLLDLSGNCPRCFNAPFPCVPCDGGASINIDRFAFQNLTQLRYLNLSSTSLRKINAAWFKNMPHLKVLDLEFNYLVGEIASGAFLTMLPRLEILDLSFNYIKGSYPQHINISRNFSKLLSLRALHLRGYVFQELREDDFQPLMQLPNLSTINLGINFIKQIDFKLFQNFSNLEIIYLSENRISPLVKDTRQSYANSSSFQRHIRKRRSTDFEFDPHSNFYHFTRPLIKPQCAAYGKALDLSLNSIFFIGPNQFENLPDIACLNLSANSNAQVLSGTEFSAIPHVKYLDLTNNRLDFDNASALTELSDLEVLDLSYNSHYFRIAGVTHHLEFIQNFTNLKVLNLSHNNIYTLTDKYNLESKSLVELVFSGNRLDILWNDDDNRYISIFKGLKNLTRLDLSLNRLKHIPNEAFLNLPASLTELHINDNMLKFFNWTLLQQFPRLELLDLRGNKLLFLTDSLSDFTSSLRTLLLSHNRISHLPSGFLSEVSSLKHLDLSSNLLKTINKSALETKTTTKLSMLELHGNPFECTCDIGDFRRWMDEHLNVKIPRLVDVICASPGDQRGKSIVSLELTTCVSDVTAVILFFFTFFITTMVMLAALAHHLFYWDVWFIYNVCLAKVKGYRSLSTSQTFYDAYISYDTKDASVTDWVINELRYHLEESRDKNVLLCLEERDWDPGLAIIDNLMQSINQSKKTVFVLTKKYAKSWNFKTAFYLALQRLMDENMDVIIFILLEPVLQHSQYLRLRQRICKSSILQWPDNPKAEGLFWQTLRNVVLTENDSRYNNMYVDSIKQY
As to the kind of experiment: TLR8 inhibition reporter assay (HEK-Blue cells, SEAP reporter, R848 stimulation). Particulars: HEK-Blue cells overexpressing human TLR8, R848 15.9 μM. Type of experiment: cell-based. The essentials: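 SEAP readout via HEK-Blue Detection medium after 22 h at 37 °C, 5% CO2 defines inhibition, normalized between agonist-plus-DMSO wells and a reference inhibitor. Compound dose range 0.05 nM–50 μM; TLR7 cells at 15,000/well (gardiquimod), TLR8 at 20,000/well (R848).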
On the technique in general: A reporter such as luciferase makes a cellular process visible.
Take `COc1ccc(-c2[nH]c3ccc(C4CCN(C(=O)COc5cccnc5)CC4)cc3c2CC(F)(F)F)cc1OC` [Example 349, 1-(4-(2-(3,4-dimethoxyphenyl)-3-(2,2,2-trifluoroethyl)-1H-indol-5-yl)piperidin-1-yl)-2-(pyridin-3-yloxy)ethan-1-one]: the IC50 (commonly the point on the concentration scale where inhibition reaches its midpoint) worked out at 671 nM.

In the case of `COc1ccc(-c2[nH]c3ccc(C4CCN(C(=O)CN(C)C)CC4)cc3c2C(O)C(F)(F)F)cc1OC` (stereo not shown) [Example 395, 1-(4-(2-(3,4-dimethoxyphenyl)-3-(2,2,2-trifluoro-1-hydroxyethyl)-1H-indol-5-yl)piperidin-1-yl)-2-(dimethylamino)ethan-1-one], half-maximal inhibition (IC50) required 438 nM.

`COc1ccc(-c2[nH]c3ccc(C4CCN(CC(=O)NCCNC(C)=O)CC4)cc3c2CC(F)(F)F)cc1OC` [Example 379, N-(2-acetamidoethyl)-2-(4-(2-(3,4-dimethoxyphenyl)-3-(2,2,2-trifluoroethyl)-1H-indol-5-yl)piperidin-1-yl)acetamide] registered an IC50 of 39 nM.

In turn, `COc1ccc(-c2[nH]c3ccc(C4CCN(C(=O)Cc5cnccn5)CC4)cc3c2CC(F)(F)F)cc1OC` [Example 342, 1-(4-(2-(3,4-dimethoxyphenyl)-3-(2,2,2-trifluoroethyl)-1H-indol-5-yl)piperidin-1-yl)-2-(pyrazin-2-yl)ethan-1-one] gave an IC50 of 591 nM.

Turning to `COc1ccc(-c2[nH]c3ccc(C4CCN(C(=O)CC(F)(F)F)CC4)cc3c2CC(F)(F)F)cc1OC` [Example 339, 1-(4-(2-(3,4-dimethoxyphenyl)-3-(2,2,2-trifluoroethyl)-1H-indol-5-yl)piperidin-1-yl)-3,3,3-trifluoropropan-1-one], the half-maximal inhibitory concentration (IC50) was 822 nM.

Turning to `COc1ccc(-c2[nH]c3ccc(C4CCN(C(=O)CCn5cccc5)CC4)cc3c2CC(F)(F)F)cc1OC` [Example 344, 1-(4-(2-(3,4-dimethoxyphenyl)-3-(2,2,2-trifluoroethyl)-1H-indol-5-yl)piperidin-1-yl)-3-(1H-pyrrol-1-yl)propan-1-one], it took 1420 nM to reach half-maximal inhibition (IC50).

Compound `COc1ccc(-c2[nH]c3ccc(C4CCN(C(=O)Cc5ccc(N(C)C)cc5)CC4)cc3c2CC(F)(F)F)cc1OC` [Example 338, 1-(4-(2-(3,4-dimethoxyphenyl)-3-(2,2,2-trifluoroethyl)-1H-indol-5-yl)piperidin-1-yl)-2-(4-(dimethylamino)phenyl)ethan-1-one] came in with a concentration for half-maximal inhibition (IC50) of 1460 nM.

For `COc1ccc(-c2[nH]c3ccc(C4CCNCC4F)cc3c2C(C)C)cc1OC` (single isomer, unassigned) [Example 322, 2-(3,4-dimethoxyphenyl)-5-(3-fluoropiperidin-4-yl)-3-isopropyl-1H-indole], the concentration for half-maximal inhibition (IC50) was determined as 22 nM.

Turning to `CCc1c(-c2ccc(OC)c(OC)c2)[nH]c2cc(C)c(C3CCNCC3)cc12` [Example 396, 2-(3,4-dimethoxyphenyl)-3-ethyl-6-methyl-5-(piperidin-4-yl)-1H-indole, HCl], it took 295 nM to reach half-maximal inhibition (IC50).

Consider `COc1ccc(-c2[nH]c3ccc(C4CCN(C(=O)CCC(N)=O)CC4)cc3c2CC(F)(F)F)cc1OC` [Example 333, 4-(4-(2-(3,4-dimethoxyphenyl)-3-(2,2,2-trifluoroethyl)-1H-indol-5-yl)piperidin-1-yl)-4-oxobutanamide], for which the 50% inhibitory concentration (IC50) is 702 nM. Compared with the last compound, the IC50 is about 2.4-fold higher.

`COc1ccc(-c2[nH]c3ccc(C4CCN(CC(=O)N(C)CCN(C)C)CC4)cc3c2CC(F)(F)F)cc1OC` [Example 367, 2-(4-(2-(3,4-dimethoxyphenyl)-3-(2,2,2-trifluoroethyl)-1H-indol-5-yl)piperidin-1-yl)-N-(2-(dimethylamino)ethyl)-N-methylacetamide] displayed an IC50 of 36 nM.

`COc1ccc(-c2[nH]c3ccc(C4CCN(CC(=O)NCCCn5ccnc5)CC4)cc3c2CC(F)(F)F)cc1OC` [Example 383, N-(3-(1H-imidazol-1-yl)propyl)-2-(4-(2-(3,4-dimethoxyphenyl)-3-(2,2,2-trifluoroethyl)-1H-indol-5-yl)piperidin-1-yl)acetamide] returned an IC50 of 30 nM.

Compound `COc1ccc(-c2[nH]c3ccc(C4CCNCC4F)cc3c2C(C)C)cc1OC` (single isomer, unassigned) [Example 323, 2-(3,4-dimethoxyphenyl)-5-(3-fluoropiperidin-4-yl)-3-isopropyl-1H-indole] came in with an IC50 of 20 nM. This IC50 lies about 1.5-fold lower than the previous one.

Take `COc1ccc(-c2[nH]c3ccc(C4CCN(C(=O)Cc5c[nH]cn5)CC4)cc3c2CC(F)(F)F)cc1OC` [Example 334, 1-(4-(2-(3,4-dimethoxyphenyl)-3-(2,2,2-trifluoroethyl)-1H-indol-5-yl)piperidin-1-yl)-2-(1H-imidazol-4-yl)ethan-1-one]: inhibition was half-maximal at 412 nM (IC50).

Compound `COc1ccc(-c2[nH]c3ccc(C4CCN(CC(=O)N5CCC(N(C)C)CC5)CC4)cc3c2CC(F)(F)F)cc1OC` [Example 364, 2-(4-(2-(3,4-dimethoxyphenyl)-3-(2,2,2-trifluoroethyl)-1H-indol-5-yl)piperidin-1-yl)-1-(4-(dimethylamino)piperidin-1-yl)ethan-1-one] showed an IC50 of 76 nM. Compared with the last compound, the IC50 is about 5.4-fold lower.

Turning to `COc1ccc(-c2[nH]c3ccc(C4CCN(C(=O)C[C@@H](C)O)CC4)cc3c2CC(F)(F)F)cc1OC` [Example 353, (R)-1-(4-(2-(3,4-dimethoxyphenyl)-3-(2,2,2-trifluoroethyl)-1H-indol-5-yl)piperidin-1-yl)-3-hydroxybutan-1-one], 964 nM corresponded to half-maximal inhibition (IC50). This IC50 lies about 13-fold higher than the previous one.

As for `CNC(=O)CN1CCC(c2ccc3[nH]c(-c4ccc(OC)c(OC)c4)c(CC(F)F)c3c2)CC1` [Example 401, 2-(4-(3-(2,2-difluoroethyl)-2-(3,4-dimethoxyphenyl)-1H-indol-5-yl)piperidin-1-yl)-N-methylacetamide], half-maximal inhibition (IC50) required 128 nM.

Take `COc1ccc(-c2[nH]c3ccc(C4CCN(CC(=O)N(C)C5CCN(C)C5)CC4)cc3c2CC(F)(F)F)cc1OC` (stereo not shown) [Example 370, 2-(4-(2-(3,4-dimethoxyphenyl)-3-(2,2,2-trifluoroethyl)-1H-indol-5-yl)piperidin-1-yl)-N-methyl-N-(1-methylpyrrolidin-3-yl)acetamide]: the IC50 amounted to 55 nM. This IC50 is about 2.3-fold lower than that of the compound before.

Compound `COc1ccc(-c2[nH]c3ccc(C4CCN(C(=O)Cc5cccnc5)CC4)cc3c2CC(F)(F)F)cc1OC` [Example 335, 1-(4-(2-(3,4-dimethoxyphenyl)-3-(2,2,2-trifluoroethyl)-1H-indol-5-yl)piperidin-1-yl)-2-(pyridin-3-yl)ethan-1-one] displayed an IC50 of 632 nM.

In turn, `COc1ccc(-c2[nH]c3ccc(C4CCN(CC(=O)NCCc5ccc(S(N)(=O)=O)cc5)CC4)cc3c2CC(F)(F)F)cc1OC` [Example 384, 2-(4-(2-(3,4-dimethoxyphenyl)-3-(2,2,2-trifluoroethyl)-1H-indol-5-yl)piperidin-1-yl)-N-(4-sulfamoylphenethyl)acetamide] showed an IC50 of 81 nM.

`COc1ccc(-c2[nH]c3ccc(C4CCN(CC(=O)NCCCN(C)C)CC4)cc3c2CC(F)(F)F)cc1OC` [Example 382, 2-(4-(2-(3,4-dimethoxyphenyl)-3-(2,2,2-trifluoroethyl)-1H-indol-5-yl)piperidin-1-yl)-N-(3-(dimethylamino)propyl)acetamide]: the IC50 was determined as 62 nM.

Consider `COc1ccc(-c2[nH]c3ccc(C4CCN(C(=O)CCC(=O)N(C)C)CC4)cc3c2CC(F)(F)F)cc1OC` [Example 346, 4-(4-(2-(3,4-dimethoxyphenyl)-3-(2,2,2-trifluoroethyl)-1H-indol-5-yl)piperidin-1-yl)-N,N-dimethyl-4-oxobutanamide], for which the IC50 turned out to be 529 nM. This IC50 is about 8.5-fold higher than that of the compound before.

`COc1ccc(-c2[nH]c3ccc(C4CCN(CC(=O)N(C)CCCN(C)C)CC4)cc3c2CC(F)(F)F)cc1OC` [Example 365, 2-(4-(2-(3,4-dimethoxyphenyl)-3-(2,2,2-trifluoroethyl)-1H-indol-5-yl)piperidin-1-yl)-N-(3-(dimethylamino)propyl)-N-methylacetamide] yielded a concentration for half-maximal inhibition (IC50) of 24 nM.

`COc1ccc(-c2[nH]c3ccc(C4CCN(CC(=O)N5CC[C@H](N(C)C)C5)CC4)cc3c2CC(F)(F)F)cc1OC` [Example 374, (S)-2-(4-(2-(3,4-dimethoxyphenyl)-3-(2,2,2-trifluoroethyl)-1H-indol-5-yl)piperidin-1-yl)-1-(3-(dimethylamino)pyrrolidin-1-yl) ethan-1-one]: 35 nM corresponded to half-maximal inhibition (IC50).

Consider `CCN(CC)C(=O)C1CCCN(CC(=O)N2CCC(c3ccc4[nH]c(-c5ccc(OC)c(OC)c5)c(C)c4c3)CC2)C1` (stereo not shown) [Example 404, 1-(2-(4-(2-(3,4-dimethoxyphenyl)-3-methyl-1H-indol-5-yl)piperidin-1-yl)-2-oxoethyl)-N,N-diethylpiperidine-3-carboxamide], for which 3750 nM corresponded to half-maximal inhibition (IC50).
